Data reported in PubChem BioAssay (NCI).
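Results reflect a 48-hour exposure of cells in 96-well plates to compound at five concentrations. TGI: concentration producing complete growth inhibition.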

Experiments:
Assay in all cases: DTP human tumour cell line panel, 48 h
A549 NSCLC = tested on: A549 NSCLC
T-47D breast = tested on: T-47D breast
EKVX NSCLC = tested on: EKVX NSCLC
ACHN renal = tested on: ACHN renal
M14 melanoma = tested on: M14 melanoma
NCI-H522 lung = tested on: NCI-H522 lung
MDA-MB-435 = tested on: MDA-MB-435
KM12 colon = tested on: KM12 colon
NCI/ADR-RES ovarian = tested on: NCI/ADR-RES ovarian
PC-3 prostate = tested on: PC-3 prostate
OVCAR-4 ovarian = tested on: OVCAR-4 ovarian
SNB-75 CNS = tested on: SNB-75 CNS
COLO 205 colon = tested on: COLO 205 colon

Row | SMILES | TGI (A549 NSCLC) [µM] | TGI (T-47D breast) [µM] | TGI (EKVX NSCLC) [µM] | TGI (ACHN renal) [µM] | TGI (M14 melanoma) [µM] | TGI (NCI-H522 lung) [µM] | TGI (MDA-MB-435) [µM] | TGI (KM12 colon) [µM] | TGI (NCI/ADR-RES ovarian) [µM] | TGI (PC-3 prostate) [µM] | TGI (OVCAR-4 ovarian) [µM] | TGI (SNB-75 CNS) [µM] | TGI (COLO 205 colon) [µM]
1 | N#CC1(C#N)NC(c2ccccc2)C(C#N)(C#N)NC1c1ccccc1 (configuration not stated) | > 100 | > 100 | > 100 | > 100 | > 100 | > 100 | > 100 | > 100 | > 100 | > 100 | > 100 | > 100 | > 100
2 | COC(=O)/C=C\C(C#N)(C#N)N=Cc1cccc(OC)c1 | 35.1 | 18.9 | 23.8 | 7.63 | 10.4 | 3 | 13.5 | 32.6 | 35.7 | 29.5 | 18.8 | 29.6 | 5.06
3 | COc1cccc(/C=N/NC(=O)CSCC(=O)N/N=C/c2cccc(OC)c2OC)c1OC | > 100 | > 100 | > 100 | > 100 | > 100 | > 100 | > 100 | > 100 | > 100 | > 100 | > 100 | > 100 | > 100
4 | COC1CCON1C(=O)c1ccccc1 (configuration not stated) | > 10 | > 10 | > 10 | > 10 | > 10 | > 10 | > 10 | – | > 10 | > 10 | > 10 | > 10 | > 10
5 | COc1cc(-c2nc3ccc(N4CCN(C)CC4)cc3[nH]2)c(OC)c2[nH]c(COC(C)=O)nc12 | > 100 | > 100 | > 100 | > 100 | 35 | > 100 | > 100 | > 100 | > 100 | > 100 | > 100 | 82 | > 100
6 | COC(=O)C1Cc2ccc(O)c(O)c2CN1 (configuration not stated) | > 100 | > 100 | > 100 | > 100 | 29.7 | > 100 | 30.5 | > 100 | 48.6 | 84.3 | 39.3 | 34.4 | > 100
7 | O=C(Cc1ccccc1F)NC1=C(Cl)C(=O)c2ccccc2C1=O | 15.7 | 5.8 | 18 | 2.02 | 7.41 | 0.565 | 10.4 | 4.11 | 6.25 | 11.9 | 5.65 | 8.06 | 6.9
8 | COCCN(CCNC(=O)c1cccc2c(N)c3cccc(C)c3nc12)CCOC | 8.48 | 27.5 | 7.7 | 13.5 | 2.7 | 0.894 | 11 | 6.93 | 33.7 | 8.9 | 6.38 | 4.75 | 2.13
9 | CCOC(=O)c1nc2ccc(C(F)(F)F)cc2nc1Nc1cc(OC)c(OC)c(OC)c1 | > 100 | > 100 | > 100 | > 100 | > 100 | > 100 | > 100 | > 100 | > 100 | > 100 | – | > 100 | > 100
10 | C1CSCCSCCCSC2CCCCC2SC1 (configuration not stated) | > 100 | > 100 | > 100 | – | > 100 | > 100 | > 100 | > 100 | > 100 | > 100 | > 100 | > 100 | > 100
11 | O=c1c2ccccc2[nH]n1Cc1ccccc1 | > 100 | > 100 | > 100 | > 100 | > 100 | > 100 | > 100 | > 100 | > 100 | > 100 | > 100 | > 100 | > 100
12 | S=C(N/N=C(\c1ccccc1)c1ccccn1)NC1CCCCC1 | > 100 | > 100 | > 100 | > 100 | > 100 | > 100 | > 100 | > 100 | 1.59 | > 100 | > 100 | > 100 | > 100
13 | CC(=O)Oc1cc(S(=O)(=O)Nc2n[nH]c(Nc3ccc(C)cc3)n2)c(S)cc1Cl | > 100 | > 100 | > 100 | > 100 | > 100 | > 100 | > 100 | > 100 | > 100 | > 100 | > 100 | – | > 100
14 | O=[N+]([O-])C(/C=C(\Cl)[N+](=O)[O-])=C1Nc2ccccc2N1 | > 100 | 69 | > 100 | > 100 | > 100 | > 100 | > 100 | > 100 | > 100 | > 100 | > 100 | > 100 | > 100
15 | CCNC(=O)c1cc(Cl)ccc1NC(=O)C12CC3CC(CC(C3)C1)C2 | > 100 | > 100 | 60.6 | > 100 | > 100 | > 100 | > 100 | > 100 | > 100 | > 100 | > 100 | – | > 100
16 | CCOP(=O)(OCC)/C(C#N)=C/c1cccn1C(C)C | > 100 | > 100 | > 100 | > 100 | > 100 | > 100 | > 100 | > 100 | > 100 | > 100 | – | > 100 | > 100
17 | CCc1c2c(cc3c1CC1(C3)Cc3cc4c(c(C(=O)OC)c3C1)CCCC4)CCCC2 (configuration not stated) | > 100 | > 100 | 83.9 | > 100 | > 100 | > 100 | > 100 | > 100 | > 100 | > 100 | > 100 | – | > 100
18 | CCCCCCCCCCCCOP(=O)(O)OP(=O)(O)OCC1OC(n2ccc(N)nc2=O)CC1O (configuration not stated) | > 100 | > 100 | > 100 | > 100 | > 100 | > 100 | > 100 | > 100 | > 100 | > 100 | > 100 | > 100 | > 100
